Results as given in patent US7341836B2, “Modified cyclic nucleotide gated ion channels” (The Regents of the University of Colorado, priority 2001, dated 2008).
“Also recorded” adds a separate entry of the source.

Columns and labels:
PDE III = details: cited from earlier work
PDE I = details: cited from earlier work
[1] = tested on: PDE activity in GH4C1 cells; assay: Effect of PDE inhibitors, forskolin and VIP on cAMP levels (Ca2+ influx through CNG channels); type: cell-based, rat; details: for d(ΔF/F0)/dt: basal cAMP, inhibitor concentration (μM)
Protocol: To further test the utility of this approach, PDE activity in excitable GH4C1 pituitary cells was examined. In all of the experiments shown (See, FIGS. 13-14, and Table 2), 1 μM nimodipine was added at time zero to block Ca^2+ influx though voltage-gated Ca^2+ channels (triggered by membrane depolarization due to Ca^2+ and Na^+ influx through CNG channels). […] FIGS. 13 and 14 each depict experiments done on a single batch of cells. As before, similar results were obtained on three other batches. In the experiments that produced the data shown in Table 2, cAMP concentrations were monitored using Ca^2+ influx through C460W/E583M channels. […] Either 100 μM IBMX or vehicle (-IBMX; control) were added at time zero. Then, 50 μM forskolin were added at 180 seconds d(ΔF/F0)/dt, which is proportional to the Ca^2+ influx rate, was estimated as described in the Examples. Data are provided as mean±standard error. IBMX or vehicle was added at 60 seconds (first arrow in FIG. 13). Either 10 μM forskolin or 100 nM VIP were added at 240 seconds (second arrow in FIG. 13). In the absence of IBMX, large forskolin or VIP-induced increases in Ca^2+ influx were observed. […] This level of basal AC activity was quite different from that observed in HEK-293 cells (See, FIGS. 9 and 10). 1 μM nimodipine was added at time 0 to block endogenous voltage-gated Ca^2+ channels.
To identify the PDE family or families that regulate the local cAMP concentration in GH4C1 cells, cAMP accumulation was monitored in the presence and absence of PDE inhibitors (See, Table 2). Again, the high cAMP affinity C460W/E583M channels were used. PDE inhibitors were added at 60 s. Although the addition of IBMX alone triggered Ca^2+ influx, 10 μM forskolin were added at 240 s as a positive control for CNG channel activity. […] This PDE is likely to have a low Km for cAMP because it is capable of regulating cAMP at concentrations too low for the WT or Δ61-90/C460W/E583M channels to detect. Thus, it is contemplated that a Ca^2+-CaM stimulated PDE (type I) is primarily responsible for controlling basal cAMP signals in GH4C1 cells.
In addition, PDE activity was monitored using Δ61-90/C460W/E583M channels to detect changes in cAMP concentration (See, FIG. 14). PDE inhibitors and forskolin were added as described above. With this construct, it was not possible to observe changes in cAMP concentration due to inhibition of PDE activity alone. […] Inhibitors specific to other PDE types had no effect on the forskolin-induced Ca^2+ influx (data not shown). […] It is contemplated that Ca^2+ influx through the C460W/E583M channels was saturated at cAMP concentrations below the Km for this PDE. Thus, it is contemplated that there are two different PDE types that regulate local cAMP signals in GH4C1 cells: a low Km, 8-methoxymethyl-IBMX sensitive PDE (type I); and a high Km, RO-20-1724-, rolipram-sensitive PDE (type IV).
GH4C1 rat pituitary cells (ATCC) were maintained in 13 mL Ham's F-10 medium (Life Technologies) supplemented with 14.3 mM NaHCO3, 15% donor horse serum (Gemini), and 2.5% fetal bovine serum, pH 6.8, in 75 cm^2 flasks at 37° C. in a humidified atmosphere of 95% air and 5% CO2. Cells were split weekly (1:4) and washed with fresh medium twice weekly. Cells were plated at ˜60% confluence in 100 mm culture dishes twenty-four hours prior to infection with the CNG-channel-encoding adenovirus constructs (multiplicity of infection=50 plaque forming units per cell). Forty-eight hours post-infection cells were detached, resuspended in serum-containing medium, and assayed within 12 hours.
In this Example, experiments conducted to examine the response of excitable GH4C1 pituitary cells to stimulation by either forskolin or the hormone vasoactive intestinal peptide (VIP), in the presence of absence of PDE inhibitors are described. […]

PDE IV = details: cited from earlier work
PDE VII = biological target: T1, PDE VII (UniProt Q9QXQ1); details: cited from earlier work
T1 sequence (Q9QXQ1 1-446): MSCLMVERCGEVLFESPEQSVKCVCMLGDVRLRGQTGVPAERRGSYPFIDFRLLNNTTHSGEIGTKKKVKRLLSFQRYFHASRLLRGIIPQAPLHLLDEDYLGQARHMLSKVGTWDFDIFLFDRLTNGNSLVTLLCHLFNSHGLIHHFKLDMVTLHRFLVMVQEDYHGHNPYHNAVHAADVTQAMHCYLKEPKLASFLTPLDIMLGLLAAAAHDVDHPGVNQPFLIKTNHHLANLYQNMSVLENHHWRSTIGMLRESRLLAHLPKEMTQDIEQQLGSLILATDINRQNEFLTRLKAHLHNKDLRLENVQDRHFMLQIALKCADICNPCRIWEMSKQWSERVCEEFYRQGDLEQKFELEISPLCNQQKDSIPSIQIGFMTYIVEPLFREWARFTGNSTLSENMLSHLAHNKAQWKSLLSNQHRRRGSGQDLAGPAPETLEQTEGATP

PDE IX = biological target: T2, PDE IX (UniProt O70628); details: read-out: IC50, PDE IX; cited from earlier work
T2 sequence (O70628 1-534): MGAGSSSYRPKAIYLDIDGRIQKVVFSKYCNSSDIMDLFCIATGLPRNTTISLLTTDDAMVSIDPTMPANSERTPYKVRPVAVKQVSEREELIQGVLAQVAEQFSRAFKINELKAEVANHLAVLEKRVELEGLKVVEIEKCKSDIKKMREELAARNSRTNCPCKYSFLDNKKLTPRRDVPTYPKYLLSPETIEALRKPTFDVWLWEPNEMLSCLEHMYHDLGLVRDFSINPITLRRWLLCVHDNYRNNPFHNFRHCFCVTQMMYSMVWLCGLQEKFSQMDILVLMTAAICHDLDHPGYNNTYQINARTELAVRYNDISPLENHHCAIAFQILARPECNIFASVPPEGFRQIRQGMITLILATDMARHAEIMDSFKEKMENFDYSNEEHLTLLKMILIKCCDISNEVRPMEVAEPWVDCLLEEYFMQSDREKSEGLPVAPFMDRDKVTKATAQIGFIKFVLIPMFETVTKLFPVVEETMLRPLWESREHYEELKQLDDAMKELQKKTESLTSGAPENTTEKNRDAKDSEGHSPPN

PDE VI = details: cited from earlier work
PDE VIII = biological target: T3, PDE VIII (Mus musculus, UniProt O88502); details: cited from earlier work
T3 construct: host or cells: heterologously expressed
T3 sequence (O88502 1-823): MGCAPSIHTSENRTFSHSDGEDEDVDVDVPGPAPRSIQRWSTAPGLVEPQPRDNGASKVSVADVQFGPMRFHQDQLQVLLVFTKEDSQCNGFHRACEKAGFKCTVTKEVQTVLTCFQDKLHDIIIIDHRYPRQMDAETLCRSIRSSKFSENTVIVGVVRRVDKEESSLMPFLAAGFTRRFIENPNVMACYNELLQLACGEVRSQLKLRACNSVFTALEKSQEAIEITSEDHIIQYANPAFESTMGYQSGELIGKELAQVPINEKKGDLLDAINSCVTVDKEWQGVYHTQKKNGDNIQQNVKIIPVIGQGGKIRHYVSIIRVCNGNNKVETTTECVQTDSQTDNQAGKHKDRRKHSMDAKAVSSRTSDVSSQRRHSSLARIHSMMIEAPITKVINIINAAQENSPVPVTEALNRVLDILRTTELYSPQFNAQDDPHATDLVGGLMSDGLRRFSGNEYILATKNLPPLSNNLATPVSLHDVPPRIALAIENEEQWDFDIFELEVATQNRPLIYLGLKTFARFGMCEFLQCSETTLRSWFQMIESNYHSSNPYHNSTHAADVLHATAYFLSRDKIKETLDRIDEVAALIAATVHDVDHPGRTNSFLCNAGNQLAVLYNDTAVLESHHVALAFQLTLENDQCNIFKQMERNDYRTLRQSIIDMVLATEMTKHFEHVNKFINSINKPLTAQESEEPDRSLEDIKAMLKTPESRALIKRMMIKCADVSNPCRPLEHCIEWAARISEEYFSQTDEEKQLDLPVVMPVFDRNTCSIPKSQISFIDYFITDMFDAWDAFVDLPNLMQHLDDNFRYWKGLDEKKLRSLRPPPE

| Structure (SMILES) | IC50 (PDE III) [µM] | IC50 (PDE I) [µM] | Ca2+ influx induced by the PDE inhibitor alone (basal cAMP) ([1]; C460W/E583M channels, no AC stimulation) | d(ΔF/F0)/dt ([1]; C460W/E583M channels) [s⁻¹] | effect on forskolin-induced Ca2+ influx / PDE activity ([1]; Δ61-90/C460W/E583M channels, 10 μM forskolin) | IC50 (PDE IV) [µM] | IC50 (PDE VII) [µM] | IC50 (PDE IX) [µM] | IC50 (PDE VI) [µM] | IC50 (PDE VIII) [µM] |
| --- | --- | --- | --- | --- | --- | --- | --- | --- | --- | --- |
| COCc1nc2c([nH]1)c(=O)n(C)c(=O)n2CC(C)C [8-methoxymethyl-IBMX] | 69 | 2 to 8 | induced Ca^2+ influx through CNG channels | 0.0025 ± 0.0009 | significantly inhibited PDE activity; also recorded: increase forskolin-induced Ca^2+ influx through CNG channels | > 100 |  |  |  |  |
| CCCOc1ccccc1-c1nc2nn[nH]c2c(=O)[nH]1 [Zaprinast] | 10 | 3 to 10 |  | 0 |  |  | > 50 | 29 to 35 | 0.15 | > 100 |
